According to ChEMBL document CHEMBL4418912, “Methods of identifying antagonists of the hTAS2R46 bitter taste receptor” (2014):
Calls of active or inactive are those of the source. The rule behind the calls is not given here.

Experiments:
Format in all cases: functional, cell-based
[1] = biological target: T1, Taste receptor type 2 member 1 (Homo sapiens) (UniProt Q9NYW7); assay: Agonist activity at recombinant human N-terminal rat ST3 receptor-fused TAS2R1 expressed in HEK293T cells co-expressing Galpha16gust44 assessed as increase in intracellular calcium level at 100 uM by FLIPR assay
T1 sequence (whole entry): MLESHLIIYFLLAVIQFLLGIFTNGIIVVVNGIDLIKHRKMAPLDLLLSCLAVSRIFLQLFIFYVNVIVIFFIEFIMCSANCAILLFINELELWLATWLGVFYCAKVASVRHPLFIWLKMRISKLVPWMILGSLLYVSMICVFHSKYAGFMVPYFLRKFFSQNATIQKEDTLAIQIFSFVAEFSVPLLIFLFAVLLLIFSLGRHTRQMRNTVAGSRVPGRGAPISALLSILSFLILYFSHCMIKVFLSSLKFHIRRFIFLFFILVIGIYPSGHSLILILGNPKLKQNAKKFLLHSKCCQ

[2] = biological target: T2, Taste receptor type 2 member 3 (Homo sapiens) (UniProt Q9NYW6); assay: Agonist activity at recombinant human N-terminal rat ST3 receptor-fused TAS2R3 expressed in HEK293T cells co-expressing Galpha16gust44 assessed as increase in intracellular calcium level at 100 uM by FLIPR assay
T2 sequence (whole entry): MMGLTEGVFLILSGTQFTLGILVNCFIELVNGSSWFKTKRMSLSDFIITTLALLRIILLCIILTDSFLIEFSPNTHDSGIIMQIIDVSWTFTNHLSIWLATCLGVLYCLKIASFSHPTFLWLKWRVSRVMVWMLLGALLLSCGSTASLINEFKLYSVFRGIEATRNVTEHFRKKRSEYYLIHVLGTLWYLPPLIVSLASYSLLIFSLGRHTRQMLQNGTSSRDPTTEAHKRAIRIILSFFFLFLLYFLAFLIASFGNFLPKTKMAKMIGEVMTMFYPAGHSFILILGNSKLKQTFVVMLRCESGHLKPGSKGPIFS

[3] = biological target: T3, Taste receptor type 2 member 16 (Homo sapiens) (UniProt Q9NYV7); assay: Agonist activity at recombinant human N-terminal rat ST3 receptor-fused TAS2R16 expressed in HEK293T cells co-expressing Galpha16gust44 assessed as increase in intracellular calcium level at 100 uM by FLIPR assay
T3 sequence (whole entry): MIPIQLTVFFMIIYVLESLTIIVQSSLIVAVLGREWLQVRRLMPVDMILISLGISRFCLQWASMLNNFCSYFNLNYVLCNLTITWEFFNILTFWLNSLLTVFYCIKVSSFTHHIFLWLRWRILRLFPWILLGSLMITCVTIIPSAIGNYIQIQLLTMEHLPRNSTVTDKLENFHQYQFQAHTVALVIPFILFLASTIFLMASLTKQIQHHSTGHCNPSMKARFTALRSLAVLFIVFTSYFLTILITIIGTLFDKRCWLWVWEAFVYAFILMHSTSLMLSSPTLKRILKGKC

[4] = biological target: T4, Taste receptor type 2 member 39 (Homo sapiens) (UniProt P59534); assay: Agonist activity at recombinant human N-terminal rat ST3 receptor-fused TAS2R39 expressed in HEK293T cells co-expressing Galpha16gust44 assessed as increase in intracellular calcium level at 100 uM by FLIPR assay
T4 sequence (whole entry): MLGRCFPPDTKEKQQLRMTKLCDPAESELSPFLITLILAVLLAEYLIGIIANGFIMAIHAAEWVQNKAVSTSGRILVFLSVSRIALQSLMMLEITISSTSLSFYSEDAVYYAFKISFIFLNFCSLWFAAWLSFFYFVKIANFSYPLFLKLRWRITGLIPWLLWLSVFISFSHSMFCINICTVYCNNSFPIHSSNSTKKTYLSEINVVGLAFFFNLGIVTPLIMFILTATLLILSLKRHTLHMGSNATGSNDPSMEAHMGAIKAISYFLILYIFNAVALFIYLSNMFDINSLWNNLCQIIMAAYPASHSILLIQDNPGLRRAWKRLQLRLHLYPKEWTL

[5] = biological target: Taste receptor type 2 member 45 (Homo sapiens) (UniProt P59539); assay: Agonist activity at recombinant human N-terminal rat ST3 receptor-fused TAS2R45 expressed in HEK293T cells co-expressing Galpha16gust44 assessed as increase in intracellular calcium level at 100 uM by FLIPR assay
Taste receptor type 2 member 45 (Homo sapiens), sequence (P59539 whole entry, the tested form may be a part): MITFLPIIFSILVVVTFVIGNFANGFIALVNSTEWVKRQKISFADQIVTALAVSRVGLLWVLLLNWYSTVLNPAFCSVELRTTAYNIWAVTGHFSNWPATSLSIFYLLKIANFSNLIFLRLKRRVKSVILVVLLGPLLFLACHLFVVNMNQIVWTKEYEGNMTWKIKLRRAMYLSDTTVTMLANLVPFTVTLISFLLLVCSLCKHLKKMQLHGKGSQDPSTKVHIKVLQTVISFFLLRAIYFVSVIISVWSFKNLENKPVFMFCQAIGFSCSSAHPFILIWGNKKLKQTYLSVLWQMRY

[6] = biological target: T5, Taste receptor type 2 member 30 (Homo sapiens) (UniProt P59541); assay: Agonist activity at recombinant human N-terminal rat ST3 receptor-fused TAS2R47 expressed in HEK293T cells co-expressing Galpha16gust44 assessed as increase in intracellular calcium level at 100 uM by FLIPR assay
T5 sequence (whole entry): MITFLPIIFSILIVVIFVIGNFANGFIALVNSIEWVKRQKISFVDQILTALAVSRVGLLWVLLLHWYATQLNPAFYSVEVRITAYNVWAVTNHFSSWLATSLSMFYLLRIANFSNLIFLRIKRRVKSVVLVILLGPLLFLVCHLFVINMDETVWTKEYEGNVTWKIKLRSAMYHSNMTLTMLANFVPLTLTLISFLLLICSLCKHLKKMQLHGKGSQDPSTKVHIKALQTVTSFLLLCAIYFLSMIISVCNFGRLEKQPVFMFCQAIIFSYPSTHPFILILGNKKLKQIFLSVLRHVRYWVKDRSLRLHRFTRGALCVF

[7] = biological target: Taste receptor type 2 member 19 (Homo sapiens) (UniProt P59542); assay: Agonist activity at recombinant human N-terminal rat ST3 receptor-fused TAS2R48 expressed in HEK293T cells co-expressing Galpha16gust44 assessed as increase in intracellular calcium level at 100 uM by FLIPR assay
Taste receptor type 2 member 19 (Homo sapiens), sequence (P59542 whole entry, the tested form may be a part): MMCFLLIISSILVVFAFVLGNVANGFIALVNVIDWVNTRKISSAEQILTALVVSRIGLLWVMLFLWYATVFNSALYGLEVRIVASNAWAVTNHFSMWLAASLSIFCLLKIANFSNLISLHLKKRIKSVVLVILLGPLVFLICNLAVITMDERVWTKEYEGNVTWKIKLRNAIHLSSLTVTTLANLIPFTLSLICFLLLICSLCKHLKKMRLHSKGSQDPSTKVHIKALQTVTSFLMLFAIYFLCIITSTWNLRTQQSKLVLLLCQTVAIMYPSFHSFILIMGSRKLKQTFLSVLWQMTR

[8] = biological target: T6, Taste receptor type 2 member 10 (Homo sapiens) (UniProt Q9NYW0); assay: (§1) Competitive-antagonist activity at recombinant human N-terminal rat ST3 receptor-fused TAS2R10 expressed in HEK293T cells co-expressing Galpha16gust44 assessed as inhibition of strychnine-induced increase in intracellular calcium level by measuring maximum signal amplitude at 10 uM by FLIPR assay (reference value: 0.42 +/- 0.09 a.u.)
T6 sequence (whole entry): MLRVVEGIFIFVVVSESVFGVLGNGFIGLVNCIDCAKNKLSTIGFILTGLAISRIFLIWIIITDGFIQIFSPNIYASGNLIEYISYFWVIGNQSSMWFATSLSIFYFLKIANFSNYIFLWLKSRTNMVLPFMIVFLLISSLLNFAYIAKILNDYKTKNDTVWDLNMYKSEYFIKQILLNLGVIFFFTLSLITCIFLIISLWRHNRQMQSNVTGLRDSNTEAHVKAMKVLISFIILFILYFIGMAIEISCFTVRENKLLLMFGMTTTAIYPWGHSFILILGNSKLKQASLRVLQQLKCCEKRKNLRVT

[9] = biological target: T6, Taste receptor type 2 member 10 (Homo sapiens); assay: as §1, with “at 100” for “at 10”

## C/C1=C\C[C@H](O)/C(C)=C/[C@H]2OC(=O)[C@@H](C)[C@@H]2CC1
[1]
  Activity: Active
[2]
  Activity: inactive
[3]
  Activity: inactive
[4]
  Activity: inactive
[5]
  Activity: inactive
[6]
  Activity: inactive
[7]
  Activity: inactive
[8]
  Activity: 0.4 a.u.
[9]
  Activity: 0.34 a.u.
